{"source": "paper PMC7288168", "about": "“Synthesis and Cytotoxic Activity of Chiral Sulfonamides Based on the 2-Azabicycloalkane Skeleton” (Molecules, 2020)", "key": {"[1]": {"assay": "Solubility in DMSO for in vitro tests", "format": "physicochemical", "conditions": "DMSO used for the in vitro tests", "procedure": "All tested compounds were dissolved in dimethyl sulfoxide (DMSO). […] To assess the anticancer activity of compounds, we tested human hepatocellular carcinoma (HCC), medulloblastoma (MB), and glioblastoma (GBM) cell lines. Further, to compare the effects of selected compounds on nonmalignant primary cells, we used primary human umbilical vein endothelial cells (HUVEC).\nWe planned to use compounds 8 and 9 as references in the current study. […] In our further studies, we plan to compare activities of all compounds using ethanol as the solvent."}, "human colon cancer HT-29": {"test_system": "human colon cancer HT-29", "design": "method as in doi:10.1016/j.tetasy.2016.06.009", "conditions": "colon cancer line; cited from earlier work"}, "HUH7 cells": {"test_system": "HUH7 cells", "assay": "Neutral red cell viability assay, HUH7", "format": "cell-based, human", "conditions": "Homo sapiens, Huh-7; 24 h treatment, neutral red; read-out: LD50 HUH7 (HCC)", "procedure": "(§1) The human hepatocellular carcinoma (HCC) cell line HUH7 was purchased from ATCC (LGC standards GmbH, Wesel, Germany). The Austrian human HCC cell line AKH12 has been well characterized and was kindly provided by Prof. Bettina Grasl-Kraupp. HUH7 cells were cultured in Dulbecco’s modified Eagle’s medium (Thermo Fisher Scientific, Waltham, MA, USA) containing 10% heat-inactivated fetal bovine serum (FBS) (Sigma-Aldrich, St. Louis, MO, USA), 1% penicillin-streptomycin (10,000 U/mL) (Thermo Fisher Scientific, Waltham, MA, USA), and 1% minimum essential medium nonessential amino acids (100x) (Thermo Fisher Scientific, Waltham, MA, USA). AKH12 cells were cultured in RPMI1640 medium (Sigma-Aldrich, St. Louis, MO, USA) containing 10% heat-inactivated FBS. DAOY and D283Med (short D283) medulloblastoma (MB) cells were purchased from ATCC (LGC standards GmbH, Wesel, Germany). D425Med (short D425) and UW228-2 were provided by Thomas Ströbel from the Institute of Neurology Medical University of Vienna. The cells were cultured in Dulbecco’s modified Eagle’s medium (Sigma-Aldrich, St. Louis, MO, USA) containing 10% FBS (Sigma-Aldrich, St. Louis, MO, USA), 2% L-Glutamine (Sigma-Aldrich, St. Louis, MO, USA), and 0.2% Normocin (Sigma-Aldrich, St. Louis, MO, USA). U-251 MG (short U251) glioblastoma (GBM) cell line was purchased from Sigma-Aldrich and cultured in Dulbecco’s modified Eagle’s medium (Sigma-Aldrich, St. Louis, MO, USA) containing 10% FBS (Sigma-Aldrich, St. Louis, MO, USA), 2% L-Glutamine (Sigma-Aldrich, St. Louis, MO, USA), and 0.2% Normocin (Sigma-Aldrich, St. Louis, Missouri, USA). Human umbilical vein endothelial cells (HUVECs) were provided by Brigitte Winter from the Department of Surgery Medical University of Vienna and were grown in endothelial cell growth medium-2 BulletKitTM (Lonza, Basel, Switzerland) under standard tissue culture conditions. All cells were incubated at 37 °C in a 5% CO2 atmosphere and regularly checked for mycoplasma contamination.\n(§2) Cell viability was determined using a neutral red assay, as previously described. The cells were placed in 24-well plates and grown to reach 70–80% confluency prior to treatment. After treatment for 24 h, cells were incubated with neutral red at a concentration of 50 µg/mL in serum-free medium for 2 h at 37 °C. Cells were then washed 2x and incubated with 1% acetic acid in 70% ethanol. The dye concentration was measured photometrically at 562 nm. The percentage of survival was calculated considering DMSO-treated (indicated as 0 µM concentration) cells as 100% control.\n(§3) LD50 was defined as the amount of a toxic agent required to eliminate 50% of the cell population. The LD50 was calculated in each experiment from the respective dose–response curve. All experiments were performed in triplicate wells."}, "AKH12 cells": {"test_system": "AKH12 cells", "assay": "Neutral red cell viability assay, AKH12", "format": "cell-based, human", "procedure": "as §1, §2, §3"}, "DAOY cells": {"test_system": "DAOY cells", "assay": "Neutral red cell viability assay, DAOY", "format": "cell-based, human", "procedure": "as §1, §2, §3"}, "UW228-2 cells": {"test_system": "UW228-2 cells", "assay": "Neutral red cell viability assay, UW228-2", "format": "cell-based, human", "procedure": "as §1, §2, §3"}, "D283 cells": {"test_system": "D283 cells", "assay": "Neutral red cell viability assay, D283", "format": "cell-based, human", "procedure": "as §1, §2, §3"}, "U251 cells": {"test_system": "U251 cells", "assay": "Neutral red cell viability assay, U251", "format": "cell-based, human", "procedure": "as §1, §2, §3"}, "HUVEC cells [2]": {"test_system": "HUVEC cells", "assay": "Neutral red cell viability assay, HUVEC (Table 1)", "format": "cell-based", "conditions": "Table 1, nonmalignant primary cells, 24 h", "procedure": "as §1, §2, §3"}, "D425 cells [3]": {"test_system": "D425 cells", "assay": "Cell viability assay (suspension cell line), MTT/CellTiter Blue, D425", "format": "cell-based, human", "procedure": "as §1, §3\n(§4) One day before treatment, 2 × 10^4 of D425Med or HUVEC cells were seeded into 24-well plates and incubated at 37 °C in a humidified atmosphere containing 5% CO2.The cells were treated with different compounds for 24 h. A […] assay using the CellTiter Blue reagent (Promega, Fitchburg, Wisconsin, USA) was performed according to the manufacturer’s protocol. Experiments were performed in triplicate and repeated three times. The percentage of survival was calculated as the ratio using DMSO-treated (indicated as 0 µM concentration) cells as 100% control."}, "HUVEC cells [4]": {"test_system": "HUVEC cells", "assay": "Cell viability assay MTT/CellTiter Blue, HUVEC (Table 2)", "format": "cell-based", "conditions": "Table 2, nonmalignant primary cells, 24 h, assay as for D425", "procedure": "as §1, §3, §4"}, "D425 cells [5]": {"test_system": "D425 cells", "design": "method as in von Bueren et al. [31]", "conditions": "known chemotherapeutics in D425 cells; ref von Bueren et al. [31]; cited from earlier work"}}, "note": "Entries after “also recorded” stand apart in the source; their conditions may differ."}
{"smiles": "CC(c1ccccc1)N1C2CCC(C2)C1CNCCNCC1C2CCC(C2)N1C(C)c1ccccc1", "note": "(centres unmarked) [Compound 8]", "values": [{"measurement": "solubility in DMSO", "setting": "[1]", "result": "not sufficient; also recorded: insufficiently soluble"}, {"measurement": "IC50", "setting": "human colon cancer HT-29", "result": "7.2 ± 0.8", "unit": "µM"}]}
{"smiles": "CC(c1ccccc1)N1C2CCC(C2)C1CN(CCN(CC1C2CCC(C2)N1C(C)c1ccccc1)S(=O)(=O)c1ccc(-c2ccc(Cl)cc2)cc1)S(=O)(=O)c1ccc(-c2ccc(Cl)cc2)cc1", "note": "[Compound 12d, Bis-4’-chloro-N,N-{[(1S,3R,4R)-2-((S)-1-phenylethyl)-2-azabicyclo[2.2.1]heptan-3-yl]methyl}-[1,1'-biphenyl]ethyl-4-sulfonamide]", "values": [{"measurement": "solubility in DMSO", "setting": "[1]", "result": "not sufficient"}, {"measurement": "melting point", "result": "252 to 255", "unit": "°C"}]}
{"smiles": "CC(c1ccccc1)N1C2CCC(C2)C1CNCC1C2CCC(C2)N1C(C)c1ccccc1", "note": "(centres unmarked) [Compound 9]", "values": [{"measurement": "solubility in DMSO", "setting": "[1]", "result": "not sufficient; also recorded: insufficiently soluble"}]}
{"smiles": "N.N.[Cl][Pt][Cl]", "note": "[cisplatin]", "values": [{"measurement": "IC50", "setting": "human colon cancer HT-29", "result": "9.7 ± 2", "unit": "µM"}]}
{"smiles": "COc1ccc(-c2ccc(S(=O)(=O)NC3CN(C(C)c4ccccc4)C4CCC3C4)cc2)cc1", "note": "[Compound 11e, 4-(4-Methoxyphenyl)-N-((2-((S)-1-phenylethyl)-(1S,4S,5R)-2-azabicyclo[3.2.1]octan-4-yl)benzenesulfonamide]", "values": [{"measurement": "IC50", "setting": "HUH7 cells", "result": "30.2 ± 2.21", "unit": "µM"}, {"measurement": "reduction of cell viability, AKH12", "setting": "AKH12 cells; 50 µM, 24 h, first screening", "result": "reduced cell viability below LD50"}, {"measurement": "IC50", "setting": "AKH12 cells; Homo sapiens, 24 h treatment, neutral red, read-out: LD50 AKH12 (HCC)", "result": "28 ± 1.39", "unit": "µM"}, {"measurement": "reduction of cell viability, DAOY", "setting": "DAOY cells; 50 µM, 24 h, first screening", "result": "reduced cell viability"}, {"measurement": "IC50", "setting": "DAOY cells; Homo sapiens, Daoy, 24 h treatment, neutral red, read-out: LD50 DAOY (MB)", "result": "24 ± 1.49", "unit": "µM"}, {"measurement": "reduction of cell viability, UW228-2", "setting": "UW228-2 cells; 50 µM, 24 h, first screening", "result": "reduced cell viability"}, {"measurement": "IC50", "setting": "UW228-2 cells; Homo sapiens, UW228-2, 24 h treatment, neutral red, read-out: LD50 UW228-2 (MB)", "result": "23.5 ± 1.56", "unit": "µM"}, {"measurement": "reduction of cell viability, D283", "setting": "D283 cells; 50 µM, 24 h, first screening", "result": "reduced cell viability"}, {"measurement": "IC50", "setting": "D283 cells; Homo sapiens, D283, 24 h treatment, read-out: LD50 D283 (MB)", "result": "25.9 ± 1.9", "unit": "µM"}, {"measurement": "decrease of cell viability, U251", "setting": "U251 cells; 50 µM, 24 h, first screening", "result": "more than 50%"}, {"measurement": "IC50", "setting": "U251 cells; Homo sapiens, U-251, 24 h treatment, neutral red, read-out: LD50 U251 (GBM)", "result": "23.7 ± 1.69", "unit": "µM"}, {"measurement": "LD50 HUVEC", "setting": "HUVEC cells [2]", "result": "17.58 ± 2.94", "unit": "µM"}, {"measurement": "reduction of cell viability, D425", "setting": "D425 cells [3]; 50 µM, 24 h, first screening", "result": "reduced cell viability"}, {"measurement": "IC50", "setting": "D425 cells [3]; Homo sapiens, 24 h treatment, suspension cell assay, read-out: LD50 D425 (MB)", "result": "17.8 ± 1.04", "unit": "µM"}, {"measurement": "D425 cell viability as compared to HUVEC cells", "setting": "D425 cells [3]; dose-response 24 h, Student's t-test, p ≤0.05 / p ≤0.01", "result": "significantly reduced D425 cell viability as compared to HUVEC cells"}, {"measurement": "HUVEC/D425 LD50 Fold Change", "setting": "D425 cells [3]; ratio of LD50 HUVEC to LD50 D425", "result": 2.04}, {"measurement": "LD50 HUVEC", "setting": "HUVEC cells [4]", "result": "36.38 ± 4.37", "unit": "µM"}]}
{"smiles": "COc1cc([C@@H]2c3cc4c(cc3[C@@H](O[C@@H]3O[C@@H]5CO[C@@H](C)O[C@H]5[C@H](O)[C@H]3O)[C@H]3COC(=O)[C@H]23)OCO4)cc(OC)c1O", "note": "[etoposide]", "values": [{"measurement": "LD50 D425", "setting": "D425 cells [5]", "result": 8, "unit": "µM"}]}
{"smiles": "Cc1ccc(-c2ccc(S(=O)(=O)N(CCN(CC3C4CCC(C4)N3C(C)c3ccccc3)S(=O)(=O)c3ccc(-c4ccc(C)cc4)cc3)CC3C4CCC(C4)N3C(C)c3ccccc3)cc2)cc1", "note": "[Compound 12b, Bis-4’-methyl-N,N-{[(1S,3R,4R)-2-((S)-1-phenylethyl)-2-azabicyclo[2.2.1]heptan-3-yl]methyl}-[1,1'-biphenyl]ethyl-4-sulfonamide]", "values": [{"measurement": "solubility in DMSO", "setting": "[1]", "result": "not sufficient"}, {"measurement": "melting point", "result": "120 to 125", "unit": "°C"}]}
